Values quoted from earlier work, collected in patent US20140205688A1, “STIMULATING AGENT AND STIMULATING COMPOSITION” (priority 2011, published 2014).

System: humans
Settings: humans took in / absorbed the substance

Row | SMILES | amplitude of CNV
1 | O=C1CN=C(c2ccccc2)c2cc([N+](=O)[O-])ccc2N1 [Nitrazepam] | declined
2 | Cn1c(=O)c2c(ncn2C)n(C)c1=O [caffeine] | increased
